According to PubChem BioAssay AID652187 (Sanford-Burnham Center for Chemical Genomics, 2013):
Activity calls are given as the source filed them.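 The calls were made as follows: active = IC50 of 25 µM or lower, counted as toxic to worms; inactive = the rest.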

System: C. elegans VP596 worms, composite health score, 20-22 h
Assay: C. elegans worm health toxicity scoring, SAR follow-up, cytotoxicity control for SKN-1 inhibitor project, whole organism, strain VP596, composite health score, round 1 (AID 652187)

SMILES	IC50
CCOc1cc(CNC2CCCC2)cc(Cl)c1OCc1ccc(C)cc1	> 64 µM (inactive)
Fc1ccc(-c2csc(-c3cccnc3)n2)cc1	> 64 µM (inactive)
CCOc1cc(CNC2CCCC2)cc(Cl)c1OC	> 64 µM (inactive)
CCOc1cc(CNc2ccccc2)cc(Cl)c1OCc1ccc(F)cc1	> 64 µM (inactive)
c1ccc(-c2csc(-c3cccnc3)n2)cc1	63.3 µM (inactive)
CCOc1cc(CNC2CCCC2)ccc1OCc1ccc(F)cc1	> 64 µM (inactive)
Fc1ccc(COc2ccc(CNC3CCCC3)cc2Cl)cc1	> 64 µM (inactive)
CCOc1cc(CNCc2ccccc2)cc(Cl)c1OCc1ccc(F)cc1	> 64 µM (inactive)
COc1ccc(-c2csc(-c3cccnc3)n2)cc1	> 64 µM (inactive)
CCOc1cc(CNC2CC2)cc(Cl)c1OCc1ccc(F)cc1	> 64 µM (inactive)
CCOc1cc(CNC(C)C)cc(Cl)c1OCc1ccc(F)cc1	> 64 µM (inactive)
Cc1ccc(-c2csc(-c3cccnc3)n2)cc1	61.1 µM (inactive)
CCOc1cc(CNC2CCCC2)cc(Cl)c1OCc1ccccc1Cl	> 64 µM (inactive)
CCOc1cc(CNC2CCCCC2)cc(Cl)c1OCc1ccc(F)cc1	> 64 µM (inactive)
CCOc1cc(CNC2CCC2)cc(Cl)c1OCc1ccc(F)cc1	> 64 µM (inactive)
Clc1ccc(-c2csc(-c3ccncc3)n2)cc1	< 64 µM (inactive)
CCOc1cc(CNC2CCCC2)cc(Cl)c1OCc1ccc(OC)cc1	> 64 µM (inactive)
Cc1ccc(-c2csc(-c3ccncc3)n2)cc1	> 64 µM (inactive)
Clc1ccc(-c2csc(-c3cccnc3)n2)cc1	> 64 µM (inactive)
COc1cc(CNC2CCCC2)cc(Cl)c1OCc1ccc(F)cc1	> 64 µM (inactive)
c1ccc(-c2csc(-c3ccncc3)n2)cc1	> 64 µM (inactive)
COc1ccc(-c2csc(-c3ccncc3)n2)cc1	> 64 µM (inactive)
CCOc1cc(CNC2CCCC2)cc(Cl)c1OCc1ccc(Cl)cc1	> 64 µM (inactive)
CCOc1cc(CNC2CCCC2)cc(Cl)c1OCc1ccccc1F	> 64 µM (inactive)
CCOc1cc(CNC2CCCC2)cc(Cl)c1OCc1cccc(F)c1	> 64 µM (inactive)
Fc1ccc(-c2csc(-c3ccncc3)n2)cc1	> 64 µM (inactive)
CCOc1cc(CNC2CCCC2)cc(Cl)c1OCc1ccc(F)cc1	> 64 µM (inactive)
CCOc1cc(C(=O)NC2CCCC2)cc(Cl)c1OCc1ccc(F)cc1	> 64 µM (inactive)
